Assay results as given in article PMC6720825, “Thiol-ene "Click" Synthesis and Pharmacological Evaluation of C-Glycoside sp^2-Iminosugar Glycolipids” (Molecules, 2019).
Entries after “also recorded” stand apart in the source; their conditions may differ.

Columns and labels:
THP-1 cells = test: Cellular toxicity (MTT assay) in THP-1 cells; type: cell-based, human; settings: for EC50: Homo sapiens, THP-1, MTT assay, 72 h at 37 °C
Description: Human myelomonocytic cell line THP-1 was grown at 37 °C and 5% CO2 in RPMI-1640 supplemented with 10% iFBS, 2 mM […], 100 U/mL penicillin, and 100 μg/mL streptomycin; 3 × 10^4 cells/well in 96-well plates were differentiated to macrophages with 20 ng/mL of PMA treatment for 48 h followed by 24 h of culture in fresh medium. Cellular toxicity of all compounds was determined using the colorimetric MTT-based assay after incubation at 37 °C for 72 h in the presence of increasing concentrations of compounds [71].

[1] = tested on: human solid tumor cell lines A549, SW1573 (lung), HBL-100, T-47D (breast), HeLa (cervix), WiDr (colon); test: Antiproliferative activity (SRB assay) against a panel of six human solid tumor cell lines; type: cell-based; settings: for GI50: read-out: GI50 (concentration to achieve 50% growth inhibition), 48 h, tested 1 to 100 μM, only values below 100 μM significant; for GI50 (concentration to achieve 50% growth inhibition): 48 h, tested 1 to 100 μM, only values below 100 μM significant
Description: The antiproliferative activity of all the sp^2-iminosugar C-glycosides (1–12) was evaluated against a panel of six representative human solid tumor cell lines including lung (A549 and SW1573), breast (HBL-100, T-47D), cervix (HeLa), and colon (WiDr).
All reagents were used as purchased from commercial suppliers without further purification. The human solid tumor cell lines A549 (lung), HBL-100 (breast), HeLa (cervix), SW1573 (lung), T-47D (breast), and WiDr (colon) were used in this study. These cell lines were a kind gift from Prof. G. J. Peters (VU Medical Center, Amsterdam, The Netherlands).
Cells were inoculated onto 96-well microtiter plates in a volume of 100 μL per well at densities of 2500 (A549, HBL-100, HeLa, and SW1573) and 5000 (T-47D and WiDr) cells per well, based on their doubling times. Compounds were initially dissolved in DMSO at 400 times the desired final maximum test concentration. Control cells were exposed to an equivalent concentration of DMSO (0.25% v/v, negative control). Each agent was tested in triplicate at different dilutions in the range of 1 to 100 μM. The drug treatment started on day 1 after plating. Drug incubation times were 48 h, after which cells were precipitated with 25 μL ice-cold TCA (50% w/v) and fixed for 60 min at 4 °C. Then the SRB assay was performed. The optical density (OD) of each well was measured at 530 nm, using BioTek’s PowerWave XS Absorbance Microplate Reader. Values were corrected for background OD from wells only containing medium. The antiproliferative activity for each compound, expressed as GI50 values, was calculated according to NCI formulas.

[2] = tested on: human lung fibroblast MRC-5 cells; test: Cellular toxicity (MTT assay) in MRC-5 cells; type: cell-based; settings: for EC50: Homo sapiens, MRC5, MTT assay, 72 h at 37 °C; for SI (EC50 MRC-5/EC50 parasite): Selectivity Index
[3] = tested on: intracellular amastigotes of Leishmania donovani MHOM/ET/67/HU3 line; test: Susceptibility of intracellular Leishmania amastigotes (luciferase assay); type: cell-based; settings: L. donovani in THP-1 macrophages, 72 h at 37 °C, threshold 20 μM
Description: The leishmanicidal activity of all the synthesized sp^2-iminosugar C-glycosides (1–12) was evaluated against intracellular amastigotes of Leishmania donovani MHOM/ET/67/HU3 line with luciferase gene integrated into the parasite genome. […] A strong influence of the nature of the lipid chain α-linked to the pseudoanomeric position of the bicyclic core in the sp^2-IGLs was inferred from the corresponding data. […] The longer-chain sp^2-IGLs 2 and 8 were over the 20 μM concentration threshold in this assay. In the sulfone series, the results evidenced some disparity between the ONJ and OGJ epimers.
Macrophage-differentiated THP-1 cells, which are considered a suitable model for human macrophages, were plated at a density of 3 × 10^4 or 3 × 10^5 macrophages/well in 96-well white polystyrene microplates or 24-well tissue culture chamber slides, respectively, and were infected at a macrophage/parasite ratio of 1:10 with L. donovani promastigotes. Twenty-four hours after infection at 35 °C and 5% CO2, extracellular parasites were removed by washing with serum-free medium. Infected cell cultures were then incubated at different compound concentrations in RPMI 1640 medium plus 10% iFBS at 37 °C with 5% CO2 for 72 h. To determine the susceptibility of L. donovani LUC amastigotes, infected macrophages maintained in 96-well plates were lysed and then luminescence intensity was measured as indicative of the intracellular parasite growth, using the Luciferase Assay System Kit (Promega, Madison, Wis.) according to the instructions of the supplier. To determine the susceptibility of L. donovani HU3 amastigotes, infected macrophages maintained in 24-well plates were fixed for 30 min at 4 °C with 2.5% paraformaldehyde phosphate-buffered saline (PBS; 1.2 mM KH2PO4, 8.1 mM Na2HPO4, 130 mM NaCl, and 2.6 mM KCl adjusted to pH 7) and permeabilized with 0.1% Triton X-100 in PBS for 30 min. Intracellular parasites and macrophages were detected by nuclear staining with ProLong® Gold antifade reagent plus DAPI (Invitrogen). The percentage infection and mean number of amastigotes from infected macrophages were determined with 200 macrophages/well.

α-Glcase (Yeast Maltase) = target: T1, α-Glcase (Yeast Maltase) (Saccharomyces cerevisiae, UniProt P53341); test: Glycosidase inhibition (Ki), yeast maltase α-glucosidase; type: biochemical; settings: for Ki, α-Glcase (Yeast Maltase): mean ± SD, three independent determinations, competitive inhibition
T1 construct: purchased
T1 sequence (P53341 whole entry): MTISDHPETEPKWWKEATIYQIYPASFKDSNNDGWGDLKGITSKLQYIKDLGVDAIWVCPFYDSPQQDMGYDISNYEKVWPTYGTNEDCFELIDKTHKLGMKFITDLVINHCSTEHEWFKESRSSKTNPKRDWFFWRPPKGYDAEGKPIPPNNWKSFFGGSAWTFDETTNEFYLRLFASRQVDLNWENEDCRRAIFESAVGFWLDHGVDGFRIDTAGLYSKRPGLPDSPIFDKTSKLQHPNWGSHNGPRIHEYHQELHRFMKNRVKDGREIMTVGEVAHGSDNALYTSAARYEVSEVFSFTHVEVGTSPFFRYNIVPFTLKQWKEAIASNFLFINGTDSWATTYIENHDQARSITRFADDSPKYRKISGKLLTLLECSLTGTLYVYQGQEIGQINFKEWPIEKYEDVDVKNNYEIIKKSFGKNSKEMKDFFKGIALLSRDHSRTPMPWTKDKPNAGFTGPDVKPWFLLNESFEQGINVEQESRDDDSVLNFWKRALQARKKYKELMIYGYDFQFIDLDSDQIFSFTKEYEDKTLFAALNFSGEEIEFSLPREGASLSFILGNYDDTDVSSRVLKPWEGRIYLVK
Source text: (§1) The inhibitory properties of the new sp^2-IGLs 1–12 and the α-C-allyl ONJ and OGJ glycosides 15, and 24 were examined against a panel of commercial glycosidases that included the α-glucosidases maltase (Saccharomyces cerevisiae) and amyloglucosidase (Aspergillus niger), the β-glucosidases from almonds and bovine liver, α-galactosidase from green coffee beans, β-galactosidase from Escherichia coli, α-mannosidase from Jack beans, and β-mannosidase from Helix pomatia. The corresponding inhibition constant (Ki) values are collected in Table 1.
(§2) Inhibition constant (Ki) values were determined by spectrophotometrically measuring the residual hydrolytic activities of the glycosidases against the respective o- (for β-galactosidase from E. coli) or p-nitrophenyl α- or β-D-glycopyranoside (for other glycosidases) in the presence of the iminosugars. Each assay was performed in phosphate buffer or phosphate-citrate buffer (for α- or β-mannosidase and amyloglucosidase) at the optimal pH for the enzymes. The reactions were initiated by addition of the enzyme to a solution of the substrate in the absence or presence of various inhibitor concentrations. The mixture was incubated for 10–30 min at 37 °C or 55 °C (for amyloglucosidase) and the reaction was quenched by addition of 1 M Na2CO3. Reaction times were appropriate to obtain 10–20% conversion of the substrate in order to achieve linear rates. The absorbance of the resulting mixture was determined at 405 nm. Approximate value of Ki was determined from the slope of Dixon plots using a fixed concentration of substrate (around the Km value for the different glycosidases) and various concentrations of inhibitor. Full Ki determinations and enzyme inhibition mode were determined from the slope of Lineweaver–Burk plots and double reciprocal analysis. Representative examples of Dixon and Lineweaver–Burk plots are shown in the Supplementary materials.

β-Glcase (Bovine Liver) = target: T2, β-Glcase (Bovine Liver) (Bos taurus, UniProt F1MNT6); test: Glycosidase inhibition (Ki), bovine liver β-glucosidase; type: biochemical; settings: mean ± SD, three independent determinations; competitive inhibition
T2 sequence (F1MNT6 1-469): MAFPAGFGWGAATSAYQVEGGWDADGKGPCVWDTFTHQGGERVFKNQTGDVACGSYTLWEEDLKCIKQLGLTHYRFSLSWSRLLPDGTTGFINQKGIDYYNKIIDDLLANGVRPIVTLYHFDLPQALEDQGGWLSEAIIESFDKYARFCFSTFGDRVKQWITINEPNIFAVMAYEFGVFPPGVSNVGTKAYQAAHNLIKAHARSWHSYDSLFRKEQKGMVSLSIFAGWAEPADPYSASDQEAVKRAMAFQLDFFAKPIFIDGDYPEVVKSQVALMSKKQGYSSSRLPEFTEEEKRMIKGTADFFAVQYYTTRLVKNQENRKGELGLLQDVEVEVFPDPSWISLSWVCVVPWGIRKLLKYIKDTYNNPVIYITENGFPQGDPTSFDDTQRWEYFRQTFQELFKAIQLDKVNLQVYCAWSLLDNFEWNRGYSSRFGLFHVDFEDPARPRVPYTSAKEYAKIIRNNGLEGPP
Source text: as §1, §2

[4] = target: T3, green coffee bean α-galactosidase (Coffea arabica, UniProt Q42656); test: Glycosidase inhibition, green coffee bean α-galactosidase; type: biochemical, green coffee beans; settings: 1 mM concentration
T3 construct: purchased
T3 sequence (Q42656 16-378): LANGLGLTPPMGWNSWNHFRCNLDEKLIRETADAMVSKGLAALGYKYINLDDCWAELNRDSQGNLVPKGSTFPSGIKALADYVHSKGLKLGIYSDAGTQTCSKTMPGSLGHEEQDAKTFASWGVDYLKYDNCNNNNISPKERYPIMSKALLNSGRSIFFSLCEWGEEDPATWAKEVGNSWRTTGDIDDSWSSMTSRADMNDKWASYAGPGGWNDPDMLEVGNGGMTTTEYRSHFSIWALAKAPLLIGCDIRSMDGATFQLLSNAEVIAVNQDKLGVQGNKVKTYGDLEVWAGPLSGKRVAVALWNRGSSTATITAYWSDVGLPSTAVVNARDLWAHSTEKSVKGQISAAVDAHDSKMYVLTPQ
Source text: as §1
Inhibition constant (Ki) values were determined by spectrophotometrically measuring the residual hydrolytic activities of the glycosidases against the respective o- (for β-galactosidase from E. coli) or p-nitrophenyl α- or β-D-glycopyranoside (for other glycosidases) in the presence of the iminosugars. […] The absorbance of the resulting mixture was determined at 405 nm. Approximate value of Ki was determined from the slope of Dixon plots using a fixed concentration of substrate (around the Km value for the different glycosidases) and various concentrations of inhibitor. Full Ki determinations and enzyme inhibition mode were determined from the slope of Lineweaver–Burk plots and double reciprocal analysis. […]

[5] = tested on: intracellular amastigotes of Leishmania donovani (amastigotes HU3); set-up: method as in doi:10.1039/C5RA02627J; settings: cited from earlier work; for EC50: intracellular amastigotes of Leishmania donovani
T-47D, breast = tested on: T-47D, breast; set-up: method as in doi:10.1039/C5RA02627J; settings: Figure 1; cited from earlier work
A549, lung = tested on: A549, lung; set-up: method as in doi:10.1039/C5RA02627J; settings: Figure 1; cited from earlier work
[6] = tested on: different human tumor cell lines; set-up: method as in doi:10.1039/C5RA02627J; settings: read-out: GI50 against different human tumor cell lines; cited from earlier work
MDA-MB-231, breast = tested on: MDA-MB-231, breast; set-up: method as in PMID 24124558, PMID 28145580; settings: Figure 1; cited from earlier work
MCF-7, breast = tested on: MCF-7, breast; set-up: method as in PMID 24124558, PMID 28145580; settings: Figure 1; cited from earlier work

SMILES	EC50 (THP-1 cells) [µM]	GI50 [1] [µM]	EC50 [2] [µM]	SI (EC50 MRC-5/EC50 parasite) [2]	EC50 [3] [µM]	Ki, α-Glcase (Yeast Maltase) (α-Glcase (Yeast Maltase))	Ki, β-Glcase (Bovine Liver) (β-Glcase (Bovine Liver))	EC50 [5] [µM]	other results
CCCCCCCCSCCC[C@@H]1[C@H](O)[C@@H](O)[C@@H](O)[C@H]2COC(=O)N12 [Compound 7, (1R)-1-[3-(Octylthio)propyl]-5N,6O-oxomethylidene-1-deoxygalactonojirimycin]	128 ± 5.71	14 to 54	60.4 ± 2.8	5.72	10.6 ± 1.51	n.i.	n.i.		SI (EC50 THP-1/EC50 parasite) (THP-1 cells; Selectivity Index): 12.06
CC(C)(C)OC(=O)NCCSCCC[C@@H]1[C@H](O)[C@@H](O)[C@@H](O)[C@H]2COC(=O)N12 [Compound 9, (1R)-1-[3-(N-tert-Butoxycarbonylaminoethylthio)propyl]-5N,6O-oxomethylidene-1-deoxygalactonojirimycin]	> 200	> 100	140 ± 17.3	10.44	13.4 ± 1.13	n.i.	n.i.		GI50 (concentration to achieve 50% growth inhibition) [1]: did not show any significant antiproliferative activity; also recorded: did not display significant antiproliferative activity
CC(C)(C)OC(=O)NCCS(=O)(=O)CCC[C@@H]1[C@H](O)[C@@H](O)[C@@H](O)[C@H]2COC(=O)N12 [Compound 12, (1R)-1-[3-(N-tert-Butoxycarbonylaminoethylsulfonyl)propyl]-5N,6O-oxomethylidene-1-deoxygalactonojirimycin]	> 200	> 100	182 ± 14.9	< 9.08	> 20	n.i.			GI50 (concentration to achieve 50% growth inhibition) [1]: did not show any significant antiproliferative activity
C=CC[C@@H]1[C@H](O)[C@@H](O)[C@H](O)[C@H]2COC(=O)N12 [Compound 15, (1R)-1-Allyl-5N,6O-oxomethylidene-1-deoxynojirimycin]							n.i.		Ki (α-Glcase (Yeast Maltase)): 79 ± 8 µM
C=CC[C@@H]1[C@H](O)[C@@H](O)[C@@H](O)[C@H]2COC(=O)N12 [Compound 24, (1R)-1-Allyl-5N,6O-oxomethylidene-1-deoxygalactonojirimycin]						n.i.	n.i.		Inhibition of green coffee bean α-galactosidase [4]: Neither epimeric OGJ sp^2-IGLs 7–12 nor α-allyl OGJ glycoside 24 behaved as inhibitors
CCCCCCCCCCCCS[C@@H]1[C@H](O)[C@@H](O)[C@@H](O)[C@H]2COC(=O)N21 [DS-OGJ]								15.5	GI50 (T-47D, breast): 18 µM
CCCCCCCCCCCCS[C@@H]1[C@H](O)[C@@H](O)[C@H](O)[C@H]2COC(=O)N21 [DS-ONJ]								20.5	GI50 (A549, lung): 16 µM; GI50 [6]: < 20 µM; Improvement of leishmanicidal potency relative to OS-ONJ [5]: up to 5 fold
CCCCCCCC[C@@H]1[C@H](O)[C@@H](O)[C@H](O)[C@H]2COC(=O)N12 [OC-ONJ]									IC50 (MDA-MB-231, breast): 44 µM; IC50 (MCF-7, breast): 26 µM
CCCCCCCCS[C@@H]1[C@H](O)[C@@H](O)[C@H](O)[C@H]2COC(=O)N21 [OS-ONJ]								73.3	IC50 (MDA-MB-231, breast): 35 µM; IC50 (MCF-7, breast): 37 µM
